We go through three compounds from US20140135293A1, “ALLENE DERIVATIVES AS SPHINGOSINE 1-PHOSPHATE (S1P) RECEPTOR MODULATORS” (ALLERGAN, INC., priority 2012, published 2014).

The target of this test is T1, human S1P1 receptor (Homo sapiens, UniProt P21453).
T1 construct: expressed in transfected cells; membranes used
T1 sequence (P21453 whole entry): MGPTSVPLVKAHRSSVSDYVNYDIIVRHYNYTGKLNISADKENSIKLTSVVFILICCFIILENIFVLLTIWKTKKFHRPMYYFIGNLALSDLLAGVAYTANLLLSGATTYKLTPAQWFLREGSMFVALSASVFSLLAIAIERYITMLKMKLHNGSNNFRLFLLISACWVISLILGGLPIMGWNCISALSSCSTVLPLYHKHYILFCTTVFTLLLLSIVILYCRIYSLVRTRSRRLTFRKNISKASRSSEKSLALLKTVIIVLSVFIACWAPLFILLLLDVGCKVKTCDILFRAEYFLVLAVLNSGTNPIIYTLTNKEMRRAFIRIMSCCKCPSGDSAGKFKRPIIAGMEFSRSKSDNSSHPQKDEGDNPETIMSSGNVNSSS
The test is described as follows: GTP y35S binding assay for S1P1 activity. It is filed as biochemical. To be noted: membranes of cells stably expressing the S1P1 receptor, agonist potency. How it is done: Compounds were synthesized and tested for S1P1 activity using the GTP y^35S binding assay. These compounds may be assessed for their ability to activate or block activation of the human S1P1 receptor in cells stably expressing the S1P1 receptor.
GTP y^35S binding was measured in the medium containing (mM) HEPES 25, pH 7.4, MgCl2 10, NaCl 100, dithitothreitol 0.5, digitonin 0.003%, 0.2 nM GTP y^35S, and 5 μg membrane protein in a volume of 150 μl. Test compounds were included in the concentration range from 0.08 to 5,000 nM unless indicated otherwise. Membranes were incubated with 100 μM […] for 30 min, and subsequently with 10 μM GDP for 10 min on ice. Drug solutions and membrane were mixed, and then reactions were initiated by adding GTP y^35S and continued for 30 min at 25° C. Reaction mixtures were filtered over Whatman GF/B filters under vacuum, and washed three times with 3 mL of ice-cold buffer (HEPES 25, pH7.4, MgCl2 10 and NaCl 100). Filters were dried and mixed with scintillant, and counted for ^35S activity using a ([…]. Agonist-induced GTP y^35S binding was obtained by subtracting that in the absence of agonist. Binding data were analyzed using a non-linear regression method. In case of antagonist assay, the reaction mixture contained 10 nM […] in the presence of test antagonist at concentrations ranging from 0.08 to 5000 nM.
Turning to `Cc1ccc(CC(=C=Cc2ccc(CNCCCP(=O)(O)O)cc2-c2ccco2)c2cc(F)cc(F)c2)cc1C` [Compound 2, [3-({4-[3-(3,5-Difluorophenyl)-4-(3,4-dimethylphenyl)buta-1,2-dien-1-yl]-3-(2-furyl)benzyl}amino)propyl]phosphonic acid], the EC50 was 0.0585 µM.
Compound `Cc1ccc(CC(=C=Cc2ccc(CNCCCP(=O)(O)O)cc2-c2cccs2)c2cc(F)cc(F)c2)cc1C` [Compound 1, [3-({4-[3-(3,5-difluorophenyl)-4-(3,4-dimethylphenyl)buta-1,2-dien-1-yl]-3-(2-thienyl)benzyl}amino)propyl]phosphonic acid] yielded a concentration for a half-maximal effect (EC50) of 0.0584 µM.
Next, `CCc1cc(C=C=C(Cc2ccc(C)c(C)c2)c2cc(F)cc(F)c2)ccc1CNCCCP(=O)(O)O` [Compound 3, [3-({4-[3-(3,5-Difluorophenyl)-4-(3,4-dimethylphenyl)buta-1,2-dien-1-yl]-2-ethylbenzyl}amino)propyl]phosphonic acid]: 1.64 µM.

As a reminder, the EC50 is the concentration needed to bring the measured effect to its halfway point. Low values mean higher potency in that assay, high ones lower potency in that assay.
